For the test, the target named is ASK1 kinase (Homo sapiens (Human), UniProt Q99683). The test is described as follows: ASK1 kinase inhibition, HTRF KinEASE-STK TR-FRET assay. It is filed as biochemical. The note with it: 5 nM ASK1, 1 uM STK3 peptide substrate, 100 uM ATP, 3 hours. As to the method:
The ability (IC50) of compounds to inhibit ASK1 kinase activity was determined by HTRF® KinEASE™ Assay System.
ASK1 was purchased from Thermofisher (Catalogue #PV4011), ATP was purchased from Sigma (Catalogue #A7699), HTRF® KinEASE™ Assay System was obtained from Cisbio (Bedford, Mass.). ½ Area plate was purchased from Perkin Elmer (Catalogue ##6005560). HTRF® KinEASE™-STK is a generic method for measuring serine/threonine kinase activities using a time-resolved fluorescence resonance energy transfer (TR-FRET) immunoassay. The IC50 value for each compound was determined in the presence of compound (various concentration from 0 to 10 μM) and a fixed amount of ATP and peptide substrates. The test compound, 1 uM STK3 peptide substrate, and 5 nM of ASK1 kinase are incubated with kinase reaction buffer containing 50 mM HEPES pH 7.5, 0.01% BRIJ-35, 10 mM MgCl2, and 1 mM EGTA for 30 minutes. 100 uM ATP is added to start kinase reaction and incubated for 3 hours. The STK3-antibody labeled with Eu^3+-Cryptate and 125 nM streptavidin-XL665 are mixed in a single addition with stop reagents provided by the Cisbio kit used to stop the kinase reaction. Fluorescence is detected using an Envision Multilabeled 2014 reader from PerkinElmer. The Fluorescence is measured at 615 nm (Cryptate) and 665 nm (XL665) and a ratio of 665 nm/615 nm is calculated for each well. The resulting TR-FRET is proportional to the phosphorylation level. Staurosporine was used as the positive control. IC50 was determined by XLfit 5.3.
By using above method, the inhibition of ASK1 was tested for the compound of formula (I). IC50 ranges are as follows: A<1 nM; 1 nM B<10 nM; 10 nM<C<100 nM; 100 nM<D<1 μM; […].
(In general: TR-FRET usually uses a lanthanide donor and a delayed reading to cut background.)

ASK1 kinase, sequence (Q99683 whole entry): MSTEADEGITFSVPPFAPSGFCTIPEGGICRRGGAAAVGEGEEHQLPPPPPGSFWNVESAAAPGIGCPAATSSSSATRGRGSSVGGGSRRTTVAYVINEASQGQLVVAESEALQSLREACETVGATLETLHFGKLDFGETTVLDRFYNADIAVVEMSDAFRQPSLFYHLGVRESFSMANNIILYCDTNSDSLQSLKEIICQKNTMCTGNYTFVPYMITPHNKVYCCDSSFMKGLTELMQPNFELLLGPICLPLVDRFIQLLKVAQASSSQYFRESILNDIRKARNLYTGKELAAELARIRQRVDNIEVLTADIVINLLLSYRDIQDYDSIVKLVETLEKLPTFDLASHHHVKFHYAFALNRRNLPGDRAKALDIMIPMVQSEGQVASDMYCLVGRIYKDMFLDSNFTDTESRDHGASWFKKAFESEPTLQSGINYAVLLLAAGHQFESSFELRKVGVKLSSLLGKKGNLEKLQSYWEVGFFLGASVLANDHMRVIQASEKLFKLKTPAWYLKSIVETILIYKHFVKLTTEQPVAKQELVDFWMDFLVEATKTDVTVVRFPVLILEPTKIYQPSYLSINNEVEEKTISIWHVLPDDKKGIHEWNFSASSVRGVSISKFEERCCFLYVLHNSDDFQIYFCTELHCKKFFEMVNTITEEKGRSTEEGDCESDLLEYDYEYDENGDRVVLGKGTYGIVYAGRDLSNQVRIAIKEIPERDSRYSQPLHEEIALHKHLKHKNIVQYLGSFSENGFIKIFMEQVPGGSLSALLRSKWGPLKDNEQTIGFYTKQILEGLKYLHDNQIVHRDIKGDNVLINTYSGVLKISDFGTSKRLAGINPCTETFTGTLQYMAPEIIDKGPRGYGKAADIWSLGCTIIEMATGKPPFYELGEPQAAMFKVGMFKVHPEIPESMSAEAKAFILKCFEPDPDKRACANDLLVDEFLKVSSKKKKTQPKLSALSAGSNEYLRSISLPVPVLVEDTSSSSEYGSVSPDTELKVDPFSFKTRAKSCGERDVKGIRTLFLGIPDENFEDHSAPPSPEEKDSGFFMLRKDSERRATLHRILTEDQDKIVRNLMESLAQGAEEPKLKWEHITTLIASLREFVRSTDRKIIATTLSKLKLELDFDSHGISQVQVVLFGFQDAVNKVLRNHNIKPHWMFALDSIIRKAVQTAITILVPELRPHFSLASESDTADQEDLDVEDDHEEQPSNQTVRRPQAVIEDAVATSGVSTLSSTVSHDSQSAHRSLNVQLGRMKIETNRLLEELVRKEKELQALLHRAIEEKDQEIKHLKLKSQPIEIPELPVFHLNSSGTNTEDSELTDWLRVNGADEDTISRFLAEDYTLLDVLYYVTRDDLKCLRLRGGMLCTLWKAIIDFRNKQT

In general, IC50 refers to the concentration at which inhibition is half-maximal. Read a low IC50 as greater potency. Compound `Cc1cc(F)c(C(=O)Nc2cccc(-n3cnnc3C(C)C)n2)cc1-n1cnc(C2CC2)c1` [Example 1c, 5-(4-cyclopropyl-1H-imidazol-1-yl)-2-fluoro-N-(6-(3-isopropyl-4H-1,2,4-triazol-4-yl)pyridin-2-yl)-4-methylbenzamide] displayed an IC50 greater than 1000 nM.

As for `Cc1cc(F)c(C(=O)Nc2cccc(-n3nnnc3C(C)C)n2)cc1-n1cnc(C(F)(F)F)c1` [Example 2b], the concentration for half-maximal inhibition (IC50) lay in the range of 100 to 1000 nM.

Regarding `CC(=O)OC[C@@H](C)n1nnnc1-c1cccc(NC(=O)c2cc(-n3cnc(C4CC4)c3)c(C)cc2F)n1` [Example 6a, (R)-2-(5-(6-(5-(4-cyclopropyl-1H-imidazol-1-yl)-2-fluoro-4-methyl-benzamido)pyridin-2-yl)-1H-tetrazol-1-yl)propyl acetate], the IC50 lay within 100 to 1000 nM.

`Cc1cc(F)c(C(=O)Nc2cccc(-c3nnnn3C(C)C(=O)O)n2)cc1-n1cnc(C2CC2)c1` (centres unmarked) [Example 19a]: the IC50 was 100 to 1000 nM.

Compound `Cc1cc(F)c(C(=O)Nc2ccnc(-c3nnn[nH]3)n2)cc1-n1cnc(C2CC2)c1` [Example 36a] yielded an IC50 greater than 1000 nM.

(Values after patent publication US10988458B2, “Apoptosis signal-regulating kinase 1 inhibitors and methods of use thereof” (Enanta Pharmaceuticals, Inc., priority 2017, dated 2021).)
